Where two headings read alike, the source gives them in different places.

Data set [1] can be described thus: log P determination by HPLC (EEC Directive 79/831 Annex V.A8). It counts as physicochemical. Here is the method:
The measurements were carried out using an Agilent 1100 LC system with a 50*4.6 Zorbax Eclipse C18 1.8 μm column (oven temperature 55° C., flow rate 2.0 ml/min).
The following mobile phases were used:
Mobile phase A: acetonitrile+1000 μl of formic acid/l
Mobile phase B: Millipore water+900 μl of formic acid/l

The subject of data set [2] is larvae of the mustard beetle (Phaedon cochleariae). Description: Phaedon test (PHAECO spray treatment). Particulars: Phaedon cochleariae, in Brassica rapa, foliar, read-out: effect in % (beetle larvae killed).
In data set [3] the test system is caterpillars of the armyworm (Spodoptera frugiperda). Description: Spodoptera frugiperda test (SPODFR spray treatment). The data set is classed as in vivo. Particulars: Spodoptera frugiperda, foliar, read-out: effect in % (caterpillars killed). From the text: Solvent: 78.0 parts by weight of acetone
Where [4] appears, read: reversed-phase HPLC, Zorbax Eclipse C18 column, by HPLC according to EEC Directive 79/831 Annex V.A8, read-out: log P.
Setting [5] is: application rate 100 g/ha, maize leaf discs.
[6] abbreviates: reversed-phase HPLC, Zorbax Eclipse C18 column, determined by HPLC according to EEC Directive 79/831 Annex V.A8, read-out: log P.
Setting [7] is: by HPLC according to EEC Directive 79/831 Annex V.A8, read-out: log P.

Take `COCCNC(=O)c1cc(C#N)cc(C)c1NC(=O)c1cc(Cn2nnc(C(F)(C(F)(F)F)C(F)(F)F)n2)nn1-c1ncccc1Cl` [Example 395]: the chromatographic logP in data set [1] (setting [4]) worked out at 3.48. Also, the pest or weed control at 100 g/ha in data set [2] and in data set [3] (setting [5]) was no less than 80% each time.

Turning to `CCNC(=O)c1cc(I)cc(C)c1NC(=O)c1cc(Cn2nnc(C(F)(F)F)n2)nn1-c1ncccc1Br` [Example 408], the chromatographic logP in data set [1] (setting [6]) came to 3.51. Further, the pest or weed control at 100 g/ha in data set [2] and in data set [3] (setting [5]) was no less than 80% each time.

In turn, `CCC(C)NC(=O)c1cc(Cl)cc(C)c1NC(=O)c1cc(Cn2nnc(C(F)(F)F)n2)nn1-c1ncccc1Cl` (stereo not drawn) [Example 36] returned a chromatographic logP in data set [1] (log P) of 3.74. For the same molecule, the pest or weed control at 100 g/ha in data set [2] and in data set [3] (in Zea mays) was no less than 80% throughout.

As for `Cc1cc(I)cc(C(=O)NC2CC2)c1NC(=O)c1cc(Cn2nnc(C(F)(F)C(F)(F)C(F)(F)F)n2)nn1-c1ncccc1Cl` [Example 111], in data set [1] (setting [7]), the chromatographic logP is 4.23. Besides, the pest or weed control at 100 g/ha in data set [2] and in data set [3] (in Zea mays) was no less than 80% in each case.

On to `CNC(=O)c1cc(Br)cc(C)c1NC(=O)c1cc(Cn2nnc(C(F)(F)F)n2)nn1-c1ncccc1C(F)(F)F` [Example 228], for which the chromatographic logP in data set [1] (setting [4]) was 3.28. Further, the pest or weed control at 100 g/ha in data set [2] and in data set [3] (setting [5]) was no less than 80% each time.

Take `CNC(=O)c1cc(Br)cc(C)c1NC(=O)c1cc(Cn2nnc(C(F)(F)F)n2)nn1-c1ncccc1Cl` [Example 28]: the chromatographic logP in data set [1] (log P) worked out at 3.05. Further, the pest or weed control at 100 g/ha in data set [2] and in data set [3] (in Zea mays) was no less than 80% in each case.

On to `CSC[C@H](C)NC(=O)c1cc(Cl)cc(Cl)c1NC(=O)c1cc(Cn2nnc(C(F)(C(F)(F)F)C(F)(F)F)n2)nn1-c1ncccc1Cl` [Example 394], for which the chromatographic logP in data set [1] (setting [4]) is 4.3. The pest or weed control at 100 g/ha in data set [2] and in data set [3] (setting [5]) was no less than 80% in each case.

The molecule `CC(C)NC(=O)c1cc(Cl)cc(Cl)c1NC(=O)c1cc(Cn2nnc(C(F)(F)F)n2)nn1-c1ncccc1Cl` [Example 61] displayed a chromatographic logP in data set [1] (log P) of 3.41. In addition, the pest or weed control at 100 g/ha in data set [2] and in data set [3] (in Zea mays) was no less than 80% each time.

As for `Cc1cc(Cl)cc(C(=O)NC2CC2)c1NC(=O)c1cc(Cn2nnc(C(F)F)n2)nn1-c1ncccc1Cl` [Example 230], the chromatographic logP in data set [1] (log P) stood at 2.72. Also, the pest or weed control at 100 g/ha in data set [2] and in data set [3] (in Zea mays) was no less than 80% in each case.

For `CCNC(=O)c1cc(Cl)cc(C)c1NC(=O)c1cc(Cn2nnc(C(F)(C(F)(F)F)C(F)(F)F)n2)nn1-c1ncccc1Cl` [Example 364], the chromatographic logP in data set [1] (log P) stood at 3.96. Moreover, the pest or weed control at 100 g/ha in data set [2] and in data set [3] (in Zea mays) was no less than 80% each time.

Take `Cc1cc(C#N)cc(C(=O)NC(C)C)c1NC(=O)c1cc(Cn2nnc(C(F)(F)C(F)(F)F)n2)nn1-c1ccccc1Cl` [Example 539]: the chromatographic logP in data set [1] (setting [6]) is 3.91. In addition, the pest or weed control at 100 g/ha in data set [2] and in data set [3] (setting [5]) was no less than 80% throughout.

In the case of `Cc1cc(I)cc(C(=O)NC(C)(C)C)c1NC(=O)c1cc(Cn2nnc(C(F)(F)C(F)(F)C(F)(F)F)n2)nn1-c1ncccc1Cl` [Example 121], the chromatographic logP in data set [1] (setting [7]) came out at 4.86. The pest or weed control at 100 g/ha in data set [2] and in data set [3] (in Zea mays) was no less than 80% each time.

In data set [1] (log P), `CCNC(=O)c1cc(Cl)cc(C)c1NC(=O)c1cc(Cn2nnc(C(F)(F)C(F)(F)F)n2)nn1-c1ncccc1Cl` [Example 128] returned a chromatographic logP of 3.65. Also, the pest or weed control at 100 g/ha in data set [2] and in data set [3] (in Zea mays) was no less than 80% throughout.

`Cc1cc(C#N)cc(C(=O)NC2CCCCC2)c1NC(=O)c1cc(Cn2nnc(C(F)(F)F)n2)nn1-c1ncccc1Cl` [Example 400] gave a chromatographic logP in data set [1] (log P) of 3.63. Also, the pest or weed control at 100 g/ha in data set [2] and in data set [3] (in Zea mays) was no less than 80% throughout.

For the molecule `Cc1cc(C)c(NC(=O)c2cc(Cn3nnc(C(F)(F)F)n3)nn2-c2ncccc2Cl)c(C(=O)NC2CCC2)c1` [Example 84], the chromatographic logP in data set [1] (log P) came out at 3.42. Also, the pest or weed control at 100 g/ha in data set [2] and in data set [3] (in Zea mays) was no less than 80% throughout.

`Cc1cc(Cl)cc(C(=O)NC(C)C)c1NC(=O)c1cc(Cn2nnc(C(F)(F)F)n2)nn1-c1ncccc1C(F)(F)F` [Example 227]: the chromatographic logP in data set [1] (setting [4]) stood at 3.64. Besides, the pest or weed control at 100 g/ha in data set [2] and in data set [3] (setting [5]) was no less than 80% each time.

Turning to `Cc1cc(Cl)cc(C(=O)NC(C)(C)C)c1NC(=O)c1cc(Cn2nnnc2C(F)(F)C(F)(F)F)nn1-c1ncccc1Br` [Example 514], the chromatographic logP in data set [1] (setting [6]) was 3.91. For the same molecule, the pest or weed control at 100 g/ha in data set [2] and in data set [3] (setting [5]) was no less than 80% throughout.

Take `CC(C)(C)NC(=O)c1cc(Cl)cc(Cl)c1NC(=O)c1cc(Cn2nnc(C(F)(C(F)(F)F)C(F)(F)F)n2)nn1-c1ncccc1Cl` [Example 390]: in data set [1] (setting [4]), the chromatographic logP was 4.47. The pest or weed control at 100 g/ha in data set [2] and in data set [3] (setting [5]) was no less than 80% throughout.

`Cc1cc(I)cc(C(=O)NC2CC2)c1NC(=O)c1cc(Cn2nnc(C(F)(C(F)(F)F)C(F)(F)F)n2)nn1-c1ncccc1Cl` [Example 379] came in with a chromatographic logP in data set [1] (log P) of 4.18. The pest or weed control at 100 g/ha in data set [2] and in data set [3] (in Zea mays) was no less than 80% throughout.

Turning to `Cc1cc(I)cc(C(=O)NC(C)C)c1NC(=O)c1cc(Cn2nnc(C(F)F)n2)nn1-c1ncccc1Cl` [Example 277], the chromatographic logP in data set [1] (log P) came to 3.2. In addition, the pest or weed control at 100 g/ha in data set [2] and in data set [3] (in Zea mays) was no less than 80% in each case.

As to `CC(C)NC(=O)c1cc(Cl)cc(Cl)c1NC(=O)c1cc(Cn2nnc(C(F)(C(F)(F)F)C(F)(F)F)n2)nn1-c1ncccc1Cl` [Example 389], the chromatographic logP in data set [1] (log P) was found to be 4.12. The pest or weed control at 100 g/ha in data set [2] and in data set [3] (in Zea mays) was no less than 80% throughout.

As for `Cc1cc(C#N)cc(C(=O)NC(C)(C)C)c1NC(=O)c1cc(Cn2nnc(C(F)(C(F)(F)F)C(F)(F)F)n2)nn1-c1ncccc1Cl` [Example 371], in data set [1] (setting [4]), the chromatographic logP came to 4.1. For the same molecule, the pest or weed control at 100 g/ha in data set [2] and in data set [3] (setting [5]) was no less than 80% in each case.

As for `Cc1cc(C#N)cc(C(=O)NCC#N)c1NC(=O)c1cc(Cn2nnnc2C(F)(F)F)nn1-c1ncccc1Cl` [Example 208], the chromatographic logP in data set [1] (log P) was determined as 2.31. Also, the pest or weed control at 100 g/ha in data set [2] and in data set [3] (in Zea mays) was no less than 80% throughout.

On to `Cc1cc(C#N)cc(C(=O)NC(C)C)c1NC(=O)c1cc(Cn2nnnc2C(F)(F)C(F)(F)F)nn1-c1ncccc1Cl` [Example 202], for which the chromatographic logP in data set [1] (log P) is 3.14. Besides, the pest or weed control at 100 g/ha in data set [2] and in data set [3] (in Zea mays) was no less than 80% each time.

On to `Cc1cc(I)cc(C(=O)NC2CC2)c1NC(=O)c1cc(Cn2nnnc2C(F)(F)F)nn1-c1ncccc1C(F)(F)F` [Example 456], for which the chromatographic logP in data set [1] (setting [6]) was found to be 3.31. Besides, the pest or weed control at 100 g/ha in data set [2] and in data set [3] (setting [5]) was no less than 80% in each case.

Consider `Cc1cc(I)cc(C(=O)NCC2CC2)c1NC(=O)c1cc(Cn2nnc(C(F)(C(F)(F)F)C(F)(F)F)n2)nn1-c1ncccc1Cl` [Example 383], for which the chromatographic logP in data set [1] (setting [4]) was determined as 4.51. Further, the pest or weed control at 100 g/ha in data set [2] and in data set [3] (setting [5]) was no less than 80% throughout.

In the case of `Cc1cc(C#N)cc(C(=O)NC(C)(C)C)c1NC(=O)c1cc(Cn2nnnc2C(F)(F)F)nn1-c1ccccc1` [Example 520], in data set [1] (setting [6]), the chromatographic logP was determined as 3.35. For the same molecule, the pest or weed control at 100 g/ha in data set [2] and in data set [3] (setting [5]) was no less than 80% in each case.

For `Cc1cc(I)cc(C(=O)NC(C)C2CC2)c1NC(=O)c1cc(Cn2nnc(C(F)(C(F)(F)F)C(F)(F)F)n2)nn1-c1ncccc1Cl` (stereo not drawn) [Example 378], the chromatographic logP in data set [1] (setting [4]) is 4.74. The pest or weed control at 100 g/ha in data set [2] and in data set [3] (setting [5]) was no less than 80% each time.

In the case of `CNC(=O)c1cc(Cl)cc(C)c1NC(=O)c1cc(Cn2nnnc2C(F)(F)F)nn1-c1cc(Cl)ccc1Cl` [Example 473], the chromatographic logP in data set [1] (setting [6]) came out at 3.52. Further, the pest or weed control at 100 g/ha in data set [2] and in data set [3] (setting [5]) was no less than 80% in each case.

Take `Cc1cc(Cl)cc(C(=O)NC(C)(C)C)c1NC(=O)c1cc(Cn2nnc(C(F)(F)C(F)(F)C(F)(F)F)n2)nn1-c1ncccc1Cl` [Example 107]: in data set [1] (setting [7]), the chromatographic logP is 4.6. Also, the pest or weed control at 100 g/ha in data set [2] and in data set [3] (in Zea mays) was no less than 80% each time.

In turn, `Cc1cc(C#N)cc(C(=O)NC(C)(C)C)c1NC(=O)c1cc(C(C)n2nnc(C(F)(F)F)n2)nn1-c1ncccc1Cl` (stereo not drawn) [Example 436] came in with a chromatographic logP in data set [1] (log P) of 3.7. Besides, the pest or weed control at 100 g/ha in data set [2] and in data set [3] (in Zea mays) was no less than 80% throughout.

As to `Cc1cc(C#N)cc(C(=O)NC(C2CC2)C2CC2)c1NC(=O)c1cc(Cn2nnc(C(F)(F)F)n2)nn1-c1ncccc1Cl` [Example 87], in data set [1] (log P), the chromatographic logP worked out at 3.65. Further, the pest or weed control at 100 g/ha in data set [2] and in data set [3] (in Zea mays) was no less than 80% each time.

For `Cc1cc(I)cc(C(=O)NC(C)C)c1NC(=O)c1cc(Cn2nnc(C(F)(F)F)n2)nn1-c1ncccc1C(F)(F)F` [Example 243], in data set [1] (setting [4]), the chromatographic logP turned out to be 3.9. Further, the pest or weed control at 100 g/ha in data set [2] and in data set [3] (setting [5]) was no less than 80% each time.

The values are drawn from patent publication US8324390B2, “Tetrazole-substituted anthranilamides as pesticides” (Bayer CropScience AG, priority 2008, dated 2012).
